According to patent US8435978B2, “Substituted sulfonamide compounds” (Gruenenthal GmbH, priority 2006, dated 2013):
Where a name gives a salt, the structure may show the parent alone.

How the values were obtained:
human B1R receptor = biological target: T1, human B1R receptor (Homo sapiens, UniProt P46663); test: Functional study on the bradykinin receptor 1 (B1R), FLIPR Ca2+ assay, hB1R cells; assay type: cell-based; conditions: CHO-K1, test substance 10 μM, agonist Lys-Des-Arg9-bradykinin 0.5 nM, % inhibition compared with the maximum achievable inhibition, read-out: B1R Antagonism, human [10 μM] % Inhibition
T1 construct: host or cells: CHO K1 cells (Chinese hamster ovary), stably transfected
T1 sequence (P46663 1-353): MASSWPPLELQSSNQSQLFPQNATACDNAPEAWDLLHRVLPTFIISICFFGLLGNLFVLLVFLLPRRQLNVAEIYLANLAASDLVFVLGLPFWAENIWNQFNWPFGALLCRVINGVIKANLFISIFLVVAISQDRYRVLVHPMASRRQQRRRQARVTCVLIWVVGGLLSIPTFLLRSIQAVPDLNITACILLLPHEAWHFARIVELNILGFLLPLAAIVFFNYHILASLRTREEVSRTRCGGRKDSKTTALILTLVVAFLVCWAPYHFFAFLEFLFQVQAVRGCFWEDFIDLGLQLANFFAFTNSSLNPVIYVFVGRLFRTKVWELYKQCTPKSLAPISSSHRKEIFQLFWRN
Summary of the method: (§1)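 FLIPR Ca2+ assay in recombinant CHO K1 cells (human or rat B1R), Fluo-4 dye; 10 μM compound, 10 min, then EC-level agonist per species (0.5 nM Lys-Des-Arg9-BK human / 100 nM Des-Arg9-BK rat). Output: % inhibition vs maximum.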

B1R receptor of the rat = biological target: T2, B1R receptor of the rat (Rattus norvegicus, UniProt P97583); test: Functional study on the bradykinin receptor 1 (B1R), FLIPR Ca2+ assay, rB1R cells; assay type: cell-based; conditions: CHO-K1, test substance 10 μM, agonist Des-Arg9-bradykinin 100 nM, % inhibition compared with the maximum achievable inhibition, read-out: B1R Antagonism, rat [10 μM] % Inhibition
T2 construct: host or cells: CHO K1 cells (Chinese hamster ovary), stably transfected
T2 sequence (P97583 1-337): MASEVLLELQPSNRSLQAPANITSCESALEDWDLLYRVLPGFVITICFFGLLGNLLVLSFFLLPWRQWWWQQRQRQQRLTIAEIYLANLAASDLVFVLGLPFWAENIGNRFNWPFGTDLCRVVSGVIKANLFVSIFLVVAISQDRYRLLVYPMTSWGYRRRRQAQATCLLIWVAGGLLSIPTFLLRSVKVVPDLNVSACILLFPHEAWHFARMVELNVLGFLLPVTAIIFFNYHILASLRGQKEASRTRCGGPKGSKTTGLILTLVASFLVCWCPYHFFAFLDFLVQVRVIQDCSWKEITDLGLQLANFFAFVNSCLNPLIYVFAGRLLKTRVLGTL
Summary of the method: as §1

| SMILES | inhibition at 10 µM (human B1R receptor) | inhibition at 10 µM (B1R receptor of the rat) |
| --- | --- | --- |
| Cc1cc(S(=O)(=O)N2CCCCC2COCC(=O)N2CCN(C3CCN(C)CC3)CC2)c(C)cc1Cl (stereo not drawn) [Example 114, 2-((1-(4-chloro-2,5-dimethylphenylsulfonyl)piperidin-2-yl)methoxy)-1-(4-(1-methylpiperidin-4-yl)piperazin-1-yl)ethanone dihydrochloride] | 102% | 103% |
| Cc1cc(C)c(S(=O)(=O)N2Cc3ccccc3CC2COCC(=O)N2CCC(N3CCN(C)CC3)CC2)c(C)c1 (stereo not drawn) [Example 292, 2-((2-(mesitylsulfonyl)-1,2,3,4-tetrahydroisoquinolin-3-yl)methoxy)-1-(4-(4-methylpiperazin-1-yl)piperidin-1-yl)ethanone] | 106% | 99.2% |
| O=C(COCC1CCCN1S(=O)(=O)c1c(Cl)cc(Cl)cc1Cl)N1CCC(N2CCOCC2)CC1 (stereo not drawn) [Example 297, 1-(4-morpholinopiperidin-1-yl)-2-((1-(2,4,6-trichlorophenylsulfonyl)pyrrolidin-2-yl)methoxy)ethanone] | 106% | 103% |
| Cc1cccc(Cl)c1S(=O)(=O)N1CCC[C@H]1COCC(=O)N1CCN(C2CCN(C)CC2)CC1 [Example 162, (S)-2-((1-(2-chloro-6-methylphenylsulfonyl)pyrrolidin-2-yl)methoxy)-1-(4-(1-methylpiperidin-4-yl)piperazin-1-yl)ethanone dihydrochloride] | 99.5% | 99.5% |
| COc1cc(C)c(S(=O)(=O)N2CCCCC2COCC(=O)Nc2ccc3ccccc3n2)c(C)c1 (stereo not drawn) [Example 546, 2-((1-(4-methoxy-2,6-dimethylphenylsulfonyl)piperidin-2-yl)methoxy)-N-(quinolin-2-yl)acetamide] | 7.44% | 104% |
| COc1cccc(-c2cc(NC(=O)COCC3CCCCN3S(=O)(=O)c3c(C)cc(OC)cc3C)n[nH]2)c1 (stereo not drawn) [Example 541, 2-((1-(4-methoxy-2,6-dimethylphenylsulfonyl)piperidin-2-yl)methoxy)-N-(5-(3-methoxyphenyl)-1H-pyrazol-3-yl)acetamide] | 103% | 108% |
| COc1cc(C)c(S(=O)(=O)N2CCCC2COCC(=O)N2CCN(Cc3ccc4c(c3)OCO4)CC2)c(C)c1 (stereo not drawn) [Example 462, 1-(4-(benzo[d][1,3]dioxol-5-ylmethyl)piperazin-1-yl)-2-((1-(4-methoxy-2,6-dimethylphenylsulfonyl)pyrrolidin-2-yl)methoxy)ethanone] | 101% | 98.2% |
| COc1cc(C)c(S(=O)(=O)N2CCCCC2COCC(=O)N2CCC(COc3ccncc3)CC2)c(C)c1 (stereo not drawn) [Example 188, 2-((1-(4-methoxy-2,6-dimethylphenylsulfonyl)piperidin-2-yl)methoxy)-1-(4-((pyridin-4-yloxy)methyl)piperidin-1-yl)ethanone] | 102% | 102% |
| COc1cc(C)c(S(=O)(=O)N2CCCCC2COCC(=O)Nc2ccc(CCc3nc4ccccc4n3C)cc2)c(C)c1 (stereo not drawn) [Example 417, 2-((1-(4-methoxy-2,6-dimethylphenylsulfonyl)piperidin-2-yl)methoxy)-N-(4-(2-(1-methyl-1H-benzo[d]imidazol-2-yl)ethyl)phenyl)acetamide] | 96.2% | 103% |
| O=C(COCC1CCCN1S(=O)(=O)c1cc(Cl)sc1Cl)N1CCN(Cc2ccccc2)CC1 (stereo not drawn) [Example 478, 1-(4-benzylpiperazin-1-yl)-2-((1-(2,5-dichlorothiophen-3-ylsulfonyl)pyrrolidin-2-yl)methoxy)ethanone] | 36.2% | 90.2% |
| COc1cc(C)c(S(=O)(=O)N2CCCCC2COCC(=O)N(C2CC2)C2CCN(Cc3ccccc3)CC2)c(C)c1 (stereo not drawn) [Example 342, N-(1-benzylpiperidin-4-yl)-N-cyclopropyl-2-((1-(4-methoxy-2,6-dimethylphenylsulfonyl)piperidin-2-yl)methoxy)acetamide] | 104% | 100% |
| O=C(COCC1CCCCN1S(=O)(=O)c1ccc(Br)cc1)N1CCC(CCN2CCCC2)CC1 (stereo not drawn) [Example 125, 2-((1-(4-bromophenylsulfonyl)piperidin-2-yl)methoxy)-1-(4-(2-(pyrrolidin-1-yl)ethyl)piperidin-1-yl)ethanone] | 50.6% | 95.4% |
| COc1cc(C)c(S(=O)(=O)N2CCCC2COCC(=O)N2CCN(C3CCN(C)CC3)CC2)c(C)c1 (stereo not drawn) [Example 192, 2-((1-(4-methoxy-2,6-dimethylphenylsulfonyl)pyrrolidin-2-yl)methoxy)-1-(4-(1-methylpiperidin-4-yl)piperazin-1-yl)ethanone] | 106% | 100% |
| Cc1cccc(N(Cc2ccccc2)C(=O)COCC2CCCCN2S(=O)(=O)c2cc(Cl)sc2Cl)n1 (stereo not drawn) [Example 515, N-benzyl-2-((1-(2,5-dichlorothiophen-3-ylsulfonyl)piperidin-2-yl)methoxy)-N-(6-methylpyridin-2-yl)acetamide] | 30.9% | 100% |
| COc1cc(C)c(S(=O)(=O)N2CCCC2COCC(=O)NCc2ccc(N3CCOCC3)cc2)c(C)c1 (stereo not drawn) [Example 579, 2-((1-(4-methoxy-2,6-dimethylphenylsulfonyl)pyrrolidin-2-yl)methoxy)-N-(4-morpholinobenzyl)acetamide] | 39.4% | 107% |
| CC(C)c1cc(C(C)C)c(S(=O)(=O)N2CCCCC2COCC(=O)N2CCN(C3CCN(C)CC3)CC2)c(C(C)C)c1 (stereo not drawn) [Example 119, 1-(4-(1-methylpiperidin-4-yl)piperazin-1-yl)-2-((1-(2,4,6-triisopropylphenylsulfonyl)piperidin-2-yl)methoxy)ethanone] | 95.9% | 61.9% |
| CN1CCC(N2CCN(C(=O)COCC3CCCCN3S(=O)(=O)c3ccc4ccccc4c3)CC2)CC1 (stereo not drawn) [Example 111, 1-(4-(1-methylpiperidin-4-yl)piperazin-1-yl)-2-((1-(naphthalen-2-ylsulfonyl)piperidin-2-yl)methoxy)ethanone] | 91.9% | 101% |
| COc1cc(C)c(S(=O)(=O)N2Cc3ccccc3CC2COCC(=O)N2CCN(c3ccccc3)CC2)c(C)c1C (stereo not drawn) [Example 479, 2-((2-(4-Methoxy-2,3,6-trimethylphenylsulfonyl)-1,2,3,4-tetrahydroisoquinolin-3-yl)methoxy)-1-(4-phenylpiperazin-1-yl)ethanone] | 32.3% | 99.1% |
| CC(C)N(CCN1CCN(C(=O)COCC2CCCCN2S(=O)(=O)c2c(Cl)cc(Cl)cc2Cl)CC1)C(C)C (stereo not drawn) [Example 254, 1-(4-(2-(diisopropylamino)ethyl)piperazin-1-yl)-2-((1-(2,4,6-trichlorophenylsulfonyl)piperidin-2-yl)methoxy)ethanone] | 105% | 97.8% |
| CN1CCC(N2CCN(C(=O)COCC3CCCCN3S(=O)(=O)c3c(Cl)nc4sccn34)CC2)CC1 (stereo not drawn) [Example 129, 2-((1-(6-chloroimidazo[2,1-b]thiazol-5-ylsulfonyl)piperidin-2-yl)methoxy)-1-(4-(1-methylpiperidin-4-yl)piperazin-1-yl)ethanone] | 0.03% | 31.2% |
| O=C(COCC1CCCN1S(=O)(=O)c1c(Cl)cccc1Cl)N1CCN(Cc2ccc(Cl)c(Cl)c2)CC1 (stereo not drawn) [Example 357, 1-(4-(3,4-dichlorobenzyl)piperazin-1-yl)-2-((1-(2,6-dichlorophenylsulfonyl)pyrrolidin-2-yl)methoxy)ethanone] | 79.4% | 104% |
| CN1CCC(N2CCN(C(=O)COCC3CCCCN3S(=O)(=O)c3cccc(Br)c3)CC2)CC1 (stereo not drawn) [Example 121, 2-((1-(3-bromophenylsulfonyl)piperidin-2-yl)methoxy)-1-(4-(1-methylpiperidin-4-yl)piperazin-1-yl)ethanone] | 70.5% | 52.7% |
| COc1cc(C)c(S(=O)(=O)N2CCCCC2COCC(=O)NCc2ccccc2N2CCOCC2)c(C)c1 (stereo not drawn) [Example 435, 2-((1-(4-methoxy-2,6-dimethylphenylsulfonyl)piperidin-2-yl)methoxy)-N-(2-morpholinobenzyl)acetamide] | 6.23% | 99.6% |
| CN1CCC(N2CCN(C(=O)COCC3CCCCN3S(=O)(=O)c3c(Cl)cc(Cl)cc3Cl)CC2)CC1 (stereo not drawn) [Example 118, 1-(4-(1-methylpiperidin-4-yl)piperazin-1-yl)-2-((1-(2,4,6-trichlorophenylsulfonyl)piperidin-2-yl)methoxy)ethanone] | 104% | 102% |
